These results are taken from US20230108270A1, “STABILIZATION OF COMPOUNDS AS CYCLODEXTRIN COMPLEXES” (University of Pittsburgh - Of the Commonwealth System of …, priority 2020, published 2023).

A short description of this data set: Stability of NO2-OA/β-cyclodextrin inclusion complex resuspended in water. The data set is classed as physicochemical. Here is the method: An important consideration when working with nitroalkene fatty acids is their high sensitivity to water or humidity. […] Stability was compared with the total amount added to the aqueous solution.
These stability assays were performed at room temperature and data was similar between the two tested concentrations of 0.31 mg/ml and 1.95 mg/ml. […] A new equilibrium is rapidly achieved and the sample is stable after this initial decay.

Structures are written as SMILES.

For `CCCCCCCCC(=CCCCCCCCC(=O)O)[N+](=O)[O-]` [NO2-OA, 10-nitro-octadec-9-enoic acid], the “time to complete decomposition of NO2-OA in water” value (NO2-OA added to water without cyclodextrin) is at most 4 h. The “time to loss of 10-NO2-OA in solution” value (same molar amount of 10-NO2-OA added to water) was at most 4 hrs.
